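Exposure lasted 48 hours, with cells grown in 96-well plates and compounds tested at five concentrations. TGI: concentration producing complete growth inhibition.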
Columns and labels:
Test in all cases: inhibition of tumour cell growth, NCI panel, 48 h
[1] = tested on: ACHN renal
[2] = tested on: DU-145 prostate
[3] = tested on: UACC-257 melanoma
[4] = tested on: M14 melanoma
[5] = tested on: A549 NSCLC
[6] = tested on: HCC-2998 colon
[7] = tested on: OVCAR-8 ovarian
[8] = tested on: LOX IMVI melanoma
[9] = tested on: SK-MEL-5 melanoma
[10] = tested on: SK-OV-3 ovarian
[11] = tested on: MALME-3M melanoma
[12] = tested on: HCT-15 colon
[13] = tested on: SN12C renal
[14] = tested on: CAKI-1 renal
[15] = tested on: RPMI-8226 leukemia
[16] = tested on: PC-3 prostate
[17] = tested on: NCI-H226 lung
[18] = tested on: IGROV1 ovarian
[19] = tested on: OVCAR-4 ovarian
[20] = tested on: SF-539 CNS
[21] = tested on: SK-MEL-28 melanoma
[22] = tested on: UACC-62 melanoma
[23] = tested on: MDA-MB-231 breast
[24] = tested on: 786-0 renal
[25] = tested on: TK-10 renal
[26] = tested on: SF-295 CNS
[27] = tested on: MOLT-4 leukemia
[28] = tested on: MDA-MB-435
[29] = tested on: MCF7 breast
[30] = tested on: MDA-N
[31] = tested on: COLO 205 colon
[32] = tested on: SK-MEL-2 melanoma
[33] = tested on: SF-268 CNS
[34] = tested on: SNB-19 CNS
[35] = tested on: T-47D breast
[36] = tested on: SW-620 colon
[37] = tested on: UO-31 renal
[38] = tested on: NCI-H460 lung
[39] = tested on: OVCAR-3 ovarian
[40] = tested on: HS 578T breast
[41] = tested on: HL-60(TB) leukemia
[42] = tested on: OVCAR-5 ovarian
[43] = tested on: RXF 393 renal
[44] = tested on: HCT-116 colon
[45] = tested on: U251 CNS
[46] = tested on: EKVX NSCLC
[47] = tested on: CCRF-CEM leukemia
[48] = tested on: KM12 colon
[49] = tested on: NCI/ADR-RES ovarian
[50] = tested on: BT-549 breast
[51] = tested on: HOP-62 NSCLC
[52] = tested on: NCI-H522 lung
[53] = tested on: SNB-75 CNS
[54] = tested on: NCI-H23 lung
[55] = tested on: HOP-92 NSCLC
[56] = tested on: K-562 leukemia
[57] = tested on: A498 renal
[58] = tested on: SR leukemia
[59] = tested on: HT29 colon

COC(=O)C1=C(OC)C(=P2(c3ccccc3)CC(c3ccccc3)=C2c2ccccc2)C(C(=O)OC)=C1C(=O)OC (configuration not stated) was tested, and the TGI [1] was > 100 µM, the TGI [2] was > 100 µM and the TGI [3] was > 100 µM. For the same molecule, the TGI [4] was > 100 µM, the TGI [5] was > 100 µM and the TGI [6] was > 100 µM. The TGI [7] was > 100 µM, the TGI [8] was > 100 µM and the TGI [9] was > 81.9 µM. For the same molecule, the TGI [10] was > 100 µM, the TGI [11] was > 78.2 µM and the TGI [12] was > 62.7 µM. The TGI [13] was > 100 µM, the TGI [14] was > 93.6 µM and the TGI [15] was > 31.2 µM. The TGI [16] was > 100 µM, the TGI [17] was > 100 µM and the TGI [18] was > 100 µM. For the same molecule, the TGI [19] was > 100 µM, the TGI [20] was > 95.5 µM and the TGI [21] was > 100 µM. The TGI [22] was > 100 µM, the TGI [23] was > 100 µM and the TGI [24] was > 100 µM. For the same molecule, the TGI [25] was > 76 µM, the TGI [26] was > 100 µM and the TGI [27] was 13.8 µM. For the same molecule, the TGI [28] was > 100 µM, the TGI [29] was > 82.6 µM and the TGI [30] was > 100 µM. The TGI [31] was > 50.5 µM, the TGI [32] was > 100 µM and the TGI [33] was > 100 µM. The TGI [34] was > 100 µM, the TGI [35] was > 51.5 µM and the TGI [36] was > 100 µM. For the same molecule, the TGI [37] was > 100 µM, the TGI [38] was > 81.7 µM and the TGI [39] was > 100 µM. For the same molecule, the TGI [40] was > 100 µM, the TGI [41] was 3.22 µM and the TGI [42] was > 100 µM. The TGI [43] was > 100 µM, the TGI [44] was > 100 µM and the TGI [45] was > 100 µM. The TGI [46] was > 100 µM, the TGI [47] was 4.74 µM and the TGI [48] was > 100 µM. The TGI [49] was > 100 µM, the TGI [50] was > 100 µM and the TGI [51] was > 100 µM. For the same molecule, the TGI [52] was 13.6 µM, the TGI [53] was > 100 µM and the TGI [54] was > 100 µM.
For C[C@H]1CCC/C=C/[C@@H]2C[C@H](OC(=O)CN(C)C)C[C@H]2[C@H](O)/C=C/C(=O)O1, the TGI [1] was 11.4 µM, the TGI [55] was > 56.1 µM and the TGI [2] was > 33.8 µM. For the same molecule, the TGI [3] was 27.8 µM, the TGI [4] was > 19.9 µM and the TGI [5] was > 100 µM. The TGI [6] was 0.235 µM, the TGI [56] was > 100 µM and the TGI [7] was 5.54 µM. The TGI [8] was 0.219 µM, the TGI [9] was 0.0944 µM and the TGI [10] was > 100 µM. For the same molecule, the TGI [11] was 0.15 µM, the TGI [57] was > 32.3 µM and the TGI [12] was 5.54 µM. The TGI [13] was 6.45 µM, the TGI [14] was > 44.9 µM and the TGI [15] was > 26.6 µM. The TGI [16] was 8.74 µM, the TGI [17] was 0.133 µM and the TGI [18] was > 29.7 µM. For the same molecule, the TGI [19] was 9.64 µM, the TGI [20] was > 48.2 µM and the TGI [21] was > 30.9 µM. For the same molecule, the TGI [22] was 22.1 µM, the TGI [23] was 0.0327 µM and the TGI [24] was > 100 µM. The TGI [25] was 1.93 µM, the TGI [26] was > 100 µM and the TGI [27] was 2.79 µM. For the same molecule, the TGI [28] was > 100 µM, the TGI [58] was 3.49 µM and the TGI [29] was 4.31 µM. The TGI [30] was > 100 µM, the TGI [31] was 0.0997 µM and the TGI [32] was 1.36 µM. The TGI [33] was > 100 µM, the TGI [34] was > 100 µM and the TGI [36] was 4.53 µM. For the same molecule, the TGI [37] was 1.48 µM, the TGI [38] was 4.05 µM and the TGI [39] was > 26.8 µM. The TGI [40] was > 10.5 µM, the TGI [41] was 6.2 µM and the TGI [42] was 5.68 µM. For the same molecule, the TGI [43] was 0.155 µM, the TGI [44] was 0.746 µM and the TGI [45] was > 100 µM. The TGI [46] was 22.2 µM, the TGI [47] was > 100 µM and the TGI [48] was 0.235 µM. The TGI [59] was 1.07 µM, the TGI [49] was 0.326 µM and the TGI [50] was > 71 µM. The TGI [51] was > 100 µM, the TGI [52] was 1.39 µM and the TGI [53] was 99.7 µM. It also gave a TGI [54] of 0.909 µM.
